# Test results reported in patent US6376209B2, “Increasing the FVII sensitivity of a thromboplastin reagent” (Dade Behring Marburg GmbH, priority 1997, dated 2002).
# Assays:
# Type in all cases: biochemical
# [1] = test system: FVII-deficient plasma; assay: Quick's thromboplastin time (PT), Schnitger & Gross; design: Coagulation time, Sample: FVII: unit not given beside the values; conditions: for Coagulation time, Sample: FVII / FVII sens.: FVII/100%: ascorbic acid 1 mM, Fe(II)SO4 or CuCl 0.01 mM, stabilization after 6 h (iron: after 1 h); for Coagulation time FVII-MP / FVII sens.: FVII-MP/100%: 0.5 sec
# Method: (§1) Quick's thromboplastin time (PT) was then determined using a Schnitger & Gross as follows:
# (§2) Heat reagents and tubes to 37° C.;
# (§3) Introduce […] of control plasma N or FVII-deficient plasma into the tubes;
# (§4) Incubate for 1 min in the thermoblock;
# (§5) Add 200 μl of thromboplastin and at the same time start the measuring operation; shake the tube briefly and place it in the measuring position of the Schnitger & Gross, and insert the electrode holder up to the limit stop;
# (§6) Read off the coagulation time.
# (§7) Quick's thromboplastin time (PT) is then determined using a Schnitger & Gross as follows:
# (§8) Introduce 100 μl of plasma into the tubes;
# (§9) Add 200 μl of thromboplastin and at the same time start the measuring operation;
# (§10) shake the tube briefly, place it in the measuring position of the Schnitger & Gross, and insert the electrode holder up to the limit stop;
# [2] = test system: Standard human plasma; assay: as above; conditions: for Coagulation time, Sample: 100%: ascorbic acid 1 mM, stabilization after 6 h (iron: after 1 h); for Coagulation time 100%: 0.5 sec
# Method: as §1, §2, §3, §4, §5, §6, §7, §8, §9, §10
# [3] = test system: control plasma Patho II; assay: as above
# Method: as §7, §2, §8, §4, §9, §10, §6
# The spread was calculated from the ratio of the coagulation times for the dilution of the StHPl and the StHPl, and the FVII sensitivity was calculated from the ratio of the coagulation times for FVII-MP and STHPL.
# (§11) Standard human plasma, the control plasma Patho II and an FVII-deficient plasma were used as samples. The reagents were stored at 4° C. and 37° C. and the coagulation time was repeated after 7 and 14 days. The spread was calculated from the ratio of the coagulation times of the Patho II and the StHPl, and the FVII sensitivity was calculated from the ratio of the coagulation times for FVII-MP and the STHPL.
# [4] = test system: FVII-deficient plasma; assay: PT, Behring Coagulation Timer (PT.sec Thromborel S); conditions: 0.75 sec, incubated 37° C., 90 min
# Method: (§12) Thromborel S Bulkware according to Example 8a) was short-time heated at a temperature of 120° C. using a dwell time of 0.75 sec and then adjusted to pH 7.5 with 0.16 mM sodium carbonate; different concentrations of chloramine T were subsequently added and the mixtures were incubated at 37° C. for 90 min. Stabilizers and 6 mM acetylcysteine were added to the solution. The pH value was adjusted to 6.5 and the coagulation time was determined using a Behring Coagulation Timer (PT.sec Thromborel S).
# as §11, with “samples.” for “samples. The reagents were stored at 4° C. and 37° C. and the coagulation time was repeated after 7 and 14 days.”, “for the” for “for”
# [5] = test system: Standard human plasma; assay: as above; conditions: 0.75 sec, incubated 37° C., 90 min
# Method: as §12
# as §11, with “samples.” for “samples. The reagents were stored at 4° C. and 37° C. and the coagulation time was repeated after 7 and 14 days.”, “for the” for “for”
# [6] = test system: control plasma Patho II; assay: as above; conditions: 0.75 sec, incubated 37° C., 90 min
# Method: (§13) The coagulation time was determined using a Behring Coagulation Timer (PT.sec Thromborel S). Standard human plasma, the. control plasma Patho II (Behringwerke AG) and an FVII-deficient plasma were employed as samples. The spread was calculated from the ratio of the coagulation times of the Patho II and the StHPl, and the FVII sensitivity was calculated from the ratio of the coagulation times for FVII-MP and STHPL.
# as §13, with “plasma, the” for “plasma, the.”, “II” for “II (Behringwerke AG)”, “spread as” for “spread was”
# as §12
# as §11, with “samples.” for “samples. The reagents were stored at 4° C. and 37° C. and the coagulation time was repeated after 7 and 14 days.”, “for the” for “for”
# [7] = reagent stored 18 h/4° C., ascorbic acid 1 mM, Fe(II)SO4 or CuCl 0.01 mM, stabilization after 6 h (iron: after 1 h)
# [8] = reagent stored 7 days 4° C., ascorbic acid 1 mM, Fe(II)SO4 or CuCl 0.01 mM, stabilization after 6 h (iron: after 1 h)
# [9] = reagent stored 7 days 37° C., ascorbic acid 1 mM, Fe(II)SO4 or CuCl 0.01 mM, stabilization after 6 h (iron: after 1 h)
# [10] = 0.001 mM added to Thromborel S heated 120° C.
# [11] = 0.01 mM added to Thromborel S heated 120° C.
# [12] = 0.1 mM added to Thromborel S heated 120° C.
# [13] = 1.5 mM added to Thromborel S heated 95° C.
# [14] = 1.5 mM added to Thromborel S heated 95° C., 0.5 sec
# [15] = 0.01 mM added to Thromborel S heated 95° C.
# [16] = 0.025 mM added to Thromborel S heated 95° C.
# [17] = 0.05 mM added to Thromborel S heated 95° C.
# [18] = 0.1 mM added to Thromborel S heated 95° C.
# [19] = 0.5 mM added to Thromborel S heated 95° C.
# [20] = 0.01 mM added to Thromborel S heated 95° C., 0.5 sec
# [21] = 0.025 mM added to Thromborel S heated 95° C., 0.5 sec
# [22] = 0.05 mM added to Thromborel S heated 95° C., 0.5 sec
# [23] = 0.1 mM added to Thromborel S heated 95° C., 0.5 sec
# [24] = 0.5 mM added to Thromborel S heated 95° C., 0.5 sec
smiles,measurement,setting,value
O=C1O[C@H]([C@@H](O)CO)C(O)=C1O [ascorbic acid],"Coagulation time, Sample: FVII",[1]; reagent stored 18 h/4° C.,157.7
same,FVII sens.: FVII/100%,[1]; reagent stored 18 h/4° C.,11.5
same,"Coagulation time, Sample: FVII",[1]; reagent stored 7 days 4° C.,154.3
same,FVII sens.: FVII/100%,[1]; reagent stored 7 days 4° C.,11.0
same,"Coagulation time, Sample: FVII",[1]; reagent stored 7 days 37° C.,181.1
same,FVII sens.: FVII/100%,[1]; reagent stored 7 days 37° C.,12.3
same,"Coagulation time, Sample: FVII",[1]; reagent stored 14 days 4° C.,161.6
same,FVII sens.: FVII/100%,[1]; reagent stored 14 days 4° C.,11.5
same,"Coagulation time, Sample: FVII",[1]; reagent stored 14 days 37° C.,195.8
same,FVII sens.: FVII/100%,[1]; reagent stored 14 days 37° C.,12.8
same,"Coagulation time, Sample: 100%","[2]; reagent stored 18 h/4° C., Fe(II)SO4 or CuCl 0.01 mM in Thromborel S heated 85° C., 3 sec",13.7
same,"Coagulation time, Sample: 100%","[2]; reagent stored 7 days 4° C., Fe(II)SO4 or CuCl 0.01 mM",14
same,"Coagulation time, Sample: 100%","[2]; reagent stored 7 days 37° C., Fe(II)SO4 or CuCl 0.01 mM",14.7
same,"Coagulation time, Sample: 100%","[2]; reagent stored 14 days 4° C., Fe(II)SO4 or CuCl 0.01 mM",14.1
same,"Coagulation time, Sample: 100%","[2]; reagent stored 14 days 37° C., Fe(II)SO4 or CuCl 0.01 mM",15.3
same,"Coagulation time, Sample: Patho II",[3]; [7],51.4
same,Spread: Patho II/100%,[3]; [7],3.8
same,"Coagulation time, Sample: Patho II",[3]; [8],51.3
same,Spread: Patho II/100%,[3]; [8],3.7
same,"Coagulation time, Sample: Patho II",[3]; [9],51.5
same,Spread: Patho II/100%,[3]; [9],3.5
same,"Coagulation time, Sample: Patho II","[3]; reagent stored 14 days 4° C., ascorbic acid 1 mM, Fe(II)SO4 or CuCl 0.01 mM, stabilization after 6 h (iron: after 1 h)",51.1
same,"Coagulation time, Sample: Patho II","[3]; reagent stored 14 days 37° C., ascorbic acid 1 mM, Fe(II)SO4 or CuCl 0.01 mM, stabilization after 6 h (iron: after 1 h)",53.1
Cc1ccc(S(=O)(=O)[N-]Cl)cc1.[Na+] [chloramine T],Coagulation time FV-MP,[4]; [10],140.1 s
same,FVII-sens. FVII-MP/100%,[4]; [10],12.2
same,Coagulation time FV-MP,[4]; [11],141.6 s
same,FVII-sens. FVII-MP/100%,[4]; [11],12.1
same,Coagulation time FV-MP,[4]; [12],177.4 s
same,FVII-sens. FVII-MP/100%,[4]; [12],13.6
same,Coagulation time 100%,[5]; [10],11.5 s
same,Coagulation time 100%,[5]; [11],11.7 s
same,Coagulation time 100%,[5]; [12],13 s
same,Coagulation time Patho II,[6]; [10],34.2 s
same,Spread Patho II/100%,[6]; [10],3.0
same,Coagulation time Patho II,[6]; [11],34.7 s
same,Spread Patho II/100%,[6]; [11],3.0
same,Coagulation time Patho II,[6]; [12],38.2 s
same,Spread Patho II/100%,[6]; [12],2.9
"O=S(=O)(F)Cc1ccccc1 [PMSF, phenylmethylsulfonyl fluoride]",Coagulation time FVII-MP,[1]; [13],259 s
same,FVII sens.: FVII-MP/100%,[1]; [13],24.2
same,Coagulation time 100%,[2]; [13],10.7 s
same,Coagulation time Patho II,[3]; [14],21.9 s
same,Spread: Patho II/100%,[3]; [14],2.0
"Nc1ccc(CS(=O)(=O)F)cc1 [pa-PMSF, 4-aminophenylmethanesulfonyl fluoride]",Coagulation time FVII-MP,[1]; [15],144 s
same,FVII sens.: FVII-MP/100%,[1]; [15],13.6
same,Coagulation time FVII-MP,[1]; [16],147 s
same,FVII sens.: FVII-MP/100%,[1]; [16],13.8
same,Coagulation time FVII-MP,[1]; [17],161 s
same,FVII sens.: FVII-MP/100%,[1]; [17],15.2
same,Coagulation time FVII-MP,[1]; [18],172 s
same,FVII sens.: FVII-MP/100%,[1]; [18],16.1
same,Coagulation time FVII-MP,[1]; [19],298 s
same,FVII sens.: FVII-MP/100%,[1]; [19],27.6
same,Coagulation time 100%,[2]; [15],10.6 s
same,Coagulation time 100%,[2]; [16],10.6 s
same,Coagulation time 100%,[2]; [17],10.6 s
same,Coagulation time 100%,[2]; [18],10.7 s
same,Coagulation time 100%,[2]; [19],10.8 s
same,Coagulation time Patho II,[3]; [20],22.3 s
same,Spread: Patho II/100%,[3]; [20],2.1
same,Coagulation time Patho II,[3]; [21],21.8 s
same,Spread: Patho II/100%,[3]; [21],2.1
same,Coagulation time Patho II,[3]; [22],22.2 s
same,Spread: Patho II/100%,[3]; [22],2.1
same,Coagulation time Patho II,[3]; [23],21.7 s
same,Spread: Patho II/100%,[3]; [23],2.0
same,Coagulation time Patho II,[3]; [24],23.i
same,Spread: Patho II/100%,[3]; [24],2.1
